{"source": "patent US6486146B1", "about": "“Cancer accelerants and phase synchronization methods” (priority 2000, dated 2002)", "key": {"[1]": {"system": "gastrointestinal epithelial cells", "assay": "Expected kill of gastrointestinal epithelium from terminal half life versus cell cycle time"}, "colon cancer tumor": {"system": "colon cancer tumor", "assay": "Mathematical model of tumor size until lethal burden using 32% kill rate", "settings": "at both doses (125 mg and 100 mg), inferred from fit of the model to observed survival"}, "colon cancer": {"system": "colon cancer", "settings": "cited from earlier work"}, "topoisomerase I": {"biological_target": "T1, topoisomerase I (Homo sapiens, UniProt P11387)", "T1 sequence (P11387 1-765)": "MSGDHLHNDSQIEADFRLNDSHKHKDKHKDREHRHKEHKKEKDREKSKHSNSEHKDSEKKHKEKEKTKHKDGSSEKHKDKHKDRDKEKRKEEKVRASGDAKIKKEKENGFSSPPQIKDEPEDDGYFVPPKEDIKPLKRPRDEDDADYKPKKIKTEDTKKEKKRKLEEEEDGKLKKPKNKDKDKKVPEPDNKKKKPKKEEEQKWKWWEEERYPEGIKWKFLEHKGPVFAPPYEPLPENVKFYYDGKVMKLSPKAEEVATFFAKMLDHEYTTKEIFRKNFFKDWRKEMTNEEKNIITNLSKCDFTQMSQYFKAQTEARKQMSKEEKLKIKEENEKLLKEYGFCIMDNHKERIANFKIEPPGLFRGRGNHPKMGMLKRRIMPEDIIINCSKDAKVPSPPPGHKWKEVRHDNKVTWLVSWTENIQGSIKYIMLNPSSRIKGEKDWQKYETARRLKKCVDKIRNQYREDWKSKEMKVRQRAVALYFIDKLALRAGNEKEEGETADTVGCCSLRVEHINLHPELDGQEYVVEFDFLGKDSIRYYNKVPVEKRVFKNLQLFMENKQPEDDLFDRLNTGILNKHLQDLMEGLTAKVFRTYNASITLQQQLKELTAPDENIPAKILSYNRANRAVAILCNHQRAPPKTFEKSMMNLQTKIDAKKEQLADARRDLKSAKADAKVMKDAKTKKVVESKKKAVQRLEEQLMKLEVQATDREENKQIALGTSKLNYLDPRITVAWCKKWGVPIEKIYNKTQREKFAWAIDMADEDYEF", "settings": "SN-38 versus irinotecan; cited from earlier work"}, "[2]": {"system": "metastatic breast cancer that possesses estrogen receptors", "assay": "Example 4 patient, prior art doxorubicin regimen, tumor size", "format": "in vivo", "settings": "30 mg/m2 once per week for 4 weeks, 3 cycles; illustrative patient example"}}, "note": "Like-named read-outs stand apart in the source and are kept apart here.", "data": [{"smiles": "CCc1c2c(nc3ccc(OC(=O)N4CCC(N5CCCCC5)CC4)cc13)-c1cc3c(c(=O)n1C2)COC(=O)[C@]3(O)CC", "note": "[Camptosar, irinotecan]", "values": [{"measurement": "mortality to gastrointestinal epithelium", "setting": "[1]; present invention LD 60", "result": 65, "unit": "%"}, {"measurement": "gastrointestinal epithelium killed", "setting": "[1]; prior art LD 125 mg", "result": 95, "unit": "%"}, {"measurement": "S-Phase kill rate", "setting": "colon cancer tumor", "result": "~100", "unit": "%"}, {"measurement": "median survival observed", "setting": "colon cancer; 100 mg once every 7 days for 4 weeks, 2 weeks off, 2 cycles, months x 30 days", "result": 279, "unit": "days"}, {"measurement": "median survival observed", "setting": "colon cancer; 100 mg regimen", "result": 9.3, "unit": "mo."}, {"measurement": "median survival observed", "setting": "colon cancer; 125 mg once every 7 days for 4 weeks, 2 weeks off, 3 cycles, months x 30 days", "result": 321, "unit": "days"}, {"measurement": "median survival observed", "setting": "colon cancer; 125 mg regimen", "result": 10.7, "unit": "mo."}]}, {"smiles": "CCc1c2c(nc3ccc(O)cc13)-c1cc3c(c(=O)n1C2)COC(=O)[C@]3(O)CC", "note": "[SN-38]", "values": [{"measurement": "potency as a topoisomerase inhibitor relative to irinotecan", "setting": "topoisomerase I", "result": "~1,000 times"}]}, {"smiles": "COc1cccc2c1C(=O)c1c(O)c3c(c(O)c1C2=O)C[C@@](O)(C(=O)CO)C[C@@H]3O[C@H]1C[C@H](N)[C@H](O)[C@H](C)O1", "note": "[doxorubicin]", "values": [{"measurement": "reduction in tumor size after the regimen", "setting": "[2]", "result": 32, "unit": "%"}]}]}
